Data set [1] is filed under the species Homo sapiens. The data set is described as follows: Selectivity ratio of IC50 for recombinant human C-terminal MMP14 (Tyr92 to Arg278 residues) catalytic domain expressed in Escherichia coli to IC50 for recombinant human N-terminal 6His/flag-tagged BMP1 (121 to 721 residues) expressed in CHO cells.
Data set [2] is filed under the species Homo sapiens. Put plainly: Selectivity ratio of IC50 for MMP8 (unknown origin) to IC50 for recombinant human N-terminal 6His/flag-tagged BMP1 (121 to 721 residues) expressed in CHO cells. The class given is cell-based.
Data set [3] is filed under the species Homo sapiens. The data set is described as follows: Selectivity ratio of IC50 for ADAM9 (unknown origin) to IC50 for recombinant human N-terminal 6His/flag-tagged BMP1 (121 to 721 residues) expressed in CHO cells. Format: cell-based.
The test system of data set [4] is Rattus norvegicus. The data set is described as follows: Dose normalized AUC in po dosed rat. The class given is ADME, organism-based. The conditions noted are these: in vivo.
Data set [5] has as its target Macrophage metalloelastase (Homo sapiens, UniProt P39900). Put plainly: Inhibition of MMP12 (unknown origin).
For data set [6], the species on record is Homo sapiens. Put plainly: Selectivity ratio of IC50 for ADAM10 (unknown origin) to IC50 for recombinant human N-terminal 6His/flag-tagged BMP1 (121 to 721 residues) expressed in CHO cells. Format: cell-based.
For data set [7], the species on record is Homo sapiens. Put plainly: Selectivity ratio of IC50 for ACE2 (unknown origin) to IC50 for recombinant human N-terminal 6His/flag-tagged BMP1 (121 to 721 residues) expressed in CHO cells. The class given is cell-based.
For data set [8], the species on record is Homo sapiens. The data set is described as follows: Selectivity ratio of IC50 for recombinant human C-terminal MMP13 (85 to 255 residues) catalytic domain expressed in Escherichia coli to IC50 for recombinant human N-terminal 6His/flag-tagged BMP1 (121 to 721 residues) expressed in CHO cells.
Data set [9] concerns the target T1, Tolloid-like protein 1 (Homo sapiens, UniProt O43897).
T1 sequence (O43897 whole entry): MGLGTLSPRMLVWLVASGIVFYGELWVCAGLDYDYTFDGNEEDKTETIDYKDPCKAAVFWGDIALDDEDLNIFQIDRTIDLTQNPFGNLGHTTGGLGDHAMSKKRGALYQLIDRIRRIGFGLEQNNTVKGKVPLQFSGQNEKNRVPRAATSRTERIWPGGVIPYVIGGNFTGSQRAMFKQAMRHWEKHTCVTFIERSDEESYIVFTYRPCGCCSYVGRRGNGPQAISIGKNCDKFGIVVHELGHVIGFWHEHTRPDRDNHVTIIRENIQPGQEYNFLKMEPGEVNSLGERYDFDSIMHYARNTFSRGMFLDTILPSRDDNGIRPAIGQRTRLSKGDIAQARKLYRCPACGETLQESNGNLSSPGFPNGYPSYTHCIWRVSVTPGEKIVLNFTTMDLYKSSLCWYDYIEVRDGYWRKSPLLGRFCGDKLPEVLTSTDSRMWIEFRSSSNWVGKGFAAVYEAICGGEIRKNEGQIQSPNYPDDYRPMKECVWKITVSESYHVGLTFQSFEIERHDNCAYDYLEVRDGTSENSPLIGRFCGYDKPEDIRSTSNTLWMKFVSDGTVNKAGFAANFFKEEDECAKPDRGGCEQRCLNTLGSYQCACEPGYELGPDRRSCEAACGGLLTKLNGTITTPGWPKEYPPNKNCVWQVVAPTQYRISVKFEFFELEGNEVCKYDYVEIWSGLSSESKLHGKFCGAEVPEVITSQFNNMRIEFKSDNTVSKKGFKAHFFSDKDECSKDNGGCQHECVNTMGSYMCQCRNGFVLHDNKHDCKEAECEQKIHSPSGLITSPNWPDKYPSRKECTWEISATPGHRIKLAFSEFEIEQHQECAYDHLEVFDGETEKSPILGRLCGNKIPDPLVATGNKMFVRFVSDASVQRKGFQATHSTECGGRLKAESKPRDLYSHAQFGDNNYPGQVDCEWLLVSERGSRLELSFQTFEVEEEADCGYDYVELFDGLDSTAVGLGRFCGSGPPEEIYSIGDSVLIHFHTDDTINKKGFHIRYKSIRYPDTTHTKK
Put plainly: Inhibition of recombinant human full length TLL1 using ((5-FAM)-ELIDQYDVQRDDSSDGSLED-K(5,6 TAMRA)-CONH2) as substrate preincubated for 10 mins followed by substrate addition measured after 60 mins.

The species named for data set [10] is Homo sapiens. Put plainly: Selectivity ratio of IC50 for human ACE1 to IC50 for recombinant human N-terminal 6His/flag-tagged BMP1 (121 to 721 residues) expressed in CHO cells. The class given is cell-based.
Data set [11] is filed under the species Homo sapiens. The data set is described as follows: Selectivity ratio of IC50 for recombinant human His-tagged TACE (1 to 671 residues) expressed in insect cells to IC50 for recombinant human N-terminal 6His/flag-tagged BMP1 (121 to 721 residues) expressed in CHO cells.
Data set [12] addresses T2, Bone morphogenetic protein 1 (Homo sapiens, UniProt P13497).
T2 sequence (P13497 whole entry): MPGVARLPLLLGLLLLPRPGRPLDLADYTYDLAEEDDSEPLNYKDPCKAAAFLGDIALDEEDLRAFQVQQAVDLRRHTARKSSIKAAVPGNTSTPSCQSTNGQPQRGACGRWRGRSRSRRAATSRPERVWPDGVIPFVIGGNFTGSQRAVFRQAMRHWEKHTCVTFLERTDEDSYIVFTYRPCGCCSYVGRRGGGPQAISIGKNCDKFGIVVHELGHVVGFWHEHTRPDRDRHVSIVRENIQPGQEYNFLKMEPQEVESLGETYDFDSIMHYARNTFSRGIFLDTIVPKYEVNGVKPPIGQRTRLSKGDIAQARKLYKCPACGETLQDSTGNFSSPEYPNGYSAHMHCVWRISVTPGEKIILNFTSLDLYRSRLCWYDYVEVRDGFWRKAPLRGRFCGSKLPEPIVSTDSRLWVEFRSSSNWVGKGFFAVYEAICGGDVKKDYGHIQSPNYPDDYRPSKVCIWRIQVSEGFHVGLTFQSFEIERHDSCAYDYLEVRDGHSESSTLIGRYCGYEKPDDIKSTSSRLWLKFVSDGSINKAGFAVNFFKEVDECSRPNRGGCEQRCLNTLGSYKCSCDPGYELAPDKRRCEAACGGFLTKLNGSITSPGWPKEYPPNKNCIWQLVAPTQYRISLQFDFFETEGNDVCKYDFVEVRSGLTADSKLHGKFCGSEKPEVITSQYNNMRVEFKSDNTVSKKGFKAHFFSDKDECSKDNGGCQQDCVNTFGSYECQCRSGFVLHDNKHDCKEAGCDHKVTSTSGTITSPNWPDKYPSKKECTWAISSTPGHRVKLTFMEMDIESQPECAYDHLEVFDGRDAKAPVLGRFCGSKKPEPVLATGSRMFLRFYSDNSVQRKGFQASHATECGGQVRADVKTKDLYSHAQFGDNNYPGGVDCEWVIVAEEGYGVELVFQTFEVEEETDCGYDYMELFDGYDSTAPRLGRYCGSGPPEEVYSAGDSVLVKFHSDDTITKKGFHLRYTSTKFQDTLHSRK
The data set is described as follows: Inhibition of recombinant human N-terminal 6His/flag-tagged BMP1 (121 to 721 residues) expressed in CHO cells using ((5-FAM)-ELIDQYDVQRDDSSDGSLED-K(5,6 TAMRA)-CONH2) as substrate preincubated for 10 mins followed by substrate addition measured after 60 mins.

pIC50: −log10 of the molar value.

Chain of Macrophage metalloelastase (P39900 whole entry, the tested form may be a part): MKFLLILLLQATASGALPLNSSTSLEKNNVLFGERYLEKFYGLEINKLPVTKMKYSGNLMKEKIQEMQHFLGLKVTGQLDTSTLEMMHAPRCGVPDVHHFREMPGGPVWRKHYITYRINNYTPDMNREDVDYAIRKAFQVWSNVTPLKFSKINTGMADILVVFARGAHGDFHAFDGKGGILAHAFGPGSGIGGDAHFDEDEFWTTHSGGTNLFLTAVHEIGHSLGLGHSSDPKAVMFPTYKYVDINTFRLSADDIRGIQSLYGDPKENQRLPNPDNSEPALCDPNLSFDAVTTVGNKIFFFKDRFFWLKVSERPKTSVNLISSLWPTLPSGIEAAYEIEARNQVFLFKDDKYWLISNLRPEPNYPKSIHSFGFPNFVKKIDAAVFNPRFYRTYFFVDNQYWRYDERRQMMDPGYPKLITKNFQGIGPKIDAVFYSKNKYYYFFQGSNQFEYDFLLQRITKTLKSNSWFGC

For the compound `CCCCC[C@@H](C(=O)NCNC(=O)c1ccc(-c2ccccc2)o1)[C@@H](CC)N(O)C=O`, the Ratio IC50 in data set [1], in data set [2], in data set [3], in [6], in [7] and in data set [8] was more than 30 in each case. Moreover, the Ratio IC50 in data set [10] and in data set [11] was more than 30 each time. The AUC/dose in [4] was found to be 1.6 kg·h/L. Moreover, the values for the pIC50 in data set [5], in [9] and in data set [12] were 5.00, 7.00 and 7.49, respectively.

Source of the values: ChEMBL document CHEMBL4196124, “Reverse Hydroxamate Inhibitors of Bone Morphogenetic Protein 1” (ACS Med Chem Lett, 2018).
